Each structure is given as a SMILES string.

As for `O=C(O)CNC(=O)c1ccc(Cl)c([N+](=O)[O-])c1`, the melting point – broadly, the temperature, or range, at which the solid turns liquid – lay in the range of 190 to 192 °C.
For the compound `O=C1CN(c2ccc(O)cc2)C(=O)N1`, the melting point was 325 to 327 °C.
`O=C(O)CCNS(=O)(=O)c1ccc(Cl)cc1`: the melting point lay within 155 to 159 °C.
The compound `O=C(O)Cc1c[nH]c2cc(F)ccc12` showed a melting point of 159 to 161 °C.
`O=C(O)c1ccc(F)c(S(=O)(=O)N2CCCCC2)c1` registered a melting point of 203 to 205 °C.
In turn, `CC(C)CNc1nnc(S)s1` had a melting point of 155 to 157 °C.
With `O=Cc1cnn(Cc2ccccc2)c1`, the melting point lay within 43 to 45 °C.
Compound `O=C1C(=O)N(CO)c2ccccc21` returned a melting point of 157 to 159 °C.
In the case of `Nc1ccccc1CN1CCNC1=O`, the melting point lay within 142 to 144 °C.
Compound `O=C(O)CN1N=C(C(F)(F)F)CC1=O` returned a melting point of 218 to 220 °C.
In turn, `CC[C@@H](CO)NCc1ccccc1` came in with a melting point of 73 to 75 °C.
In the case of `CN(CC(=O)O)S(=O)(=O)c1ccc2ccccc2c1` it was 172 to 174 °C.
The compound `Nc1nc(SCc2ccccc2)ns1` displayed a melting point of 104 to 106 °C.
Turning to `CC(=O)c1cccc(OCc2cn3ccccc3n2)c1`, the melting point lay within 77 to 79 °C.
In the case of `N#CC(=Cc1ccco1)C(=O)O`, the melting point was 227 to 229 °C.
`Cc1n[nH]c(C)c1CC(C)C(=O)O` (configuration not stated) gave a melting point of 170 to 172 °C.
Then `Cn1ncc2c(=O)[nH]c(NN)nc21`, with 285 to 287 °C.
For the compound `O=C(c1cc2cc(Br)ccc2o1)c1cccs1`, the melting point lay within 88 to 90 °C.
Then `CC(Cl)C(=O)Nc1ccc(NC(=O)c2cccs2)cc1` (configuration not stated), with 227 to 229 °C; and `O=C(O)CCCNC(=O)c1ccccc1`, with 87 to 89 °C; and `CCOc1cc(C=O)ccc1OCc1cccnc1`, with 73 to 75 °C.
Compound `N=C1NS(=O)(=O)Cc2ccccc21` returned a melting point of 264 to 266 °C.
Then `OC(c1cccnc1)C(F)(F)F` (configuration not stated), with 64 to 66 °C; and `CC(=O)c1cc2ccccc2[nH]1`, with 149 to 151 °C.
`NS(=O)(=O)CCc1ccc([N+](=O)[O-])cc1` gave a melting point of 118 to 120 °C.
Compound `COc1ccc2[nH]c(C)nc2c1` displayed a melting point of 119 to 121 °C.
Then `COc1cc(C=O)ccc1OCc1ccc(Cl)cc1Cl`, with 114 to 116 °C; and `Cc1cc(C(=O)O)ccc1-n1cncn1`, with 242 to 244 °C.
For the compound `Clc1ccc2nncn2n1`, the melting point lay in the range of 213 to 215 °C.
Take `CNC(=S)NNC(=O)c1ccccc1`: the melting point was in the range of 181 to 183 °C.
`O=C(O)/C(=C\c1ccccc1)c1ccc(Cl)cc1` displayed a melting point of 179 to 183 °C.
The compound `COc1cc(N)c(O)cc1[N+](=O)[O-]` registered a melting point of 149 to 151 °C.
`COc1ccc(C2=CCNC2)cc1` showed a melting point of 94 to 96 °C.
As for `CCOC(=O)COc1ccc(Br)cc1F`, the melting point was in the range of 30 to 32 °C.
For the compound `O=C(O)c1ccc2cccnn12`, the melting point is 132 to 134 °C.
The compound `O=C(O)c1ccc(Oc2ccc(Oc3ccccc3)cc2)nc1` yielded a melting point of 152 to 154 °C.
As to `CS(=O)(=O)CCC(NC(=O)c1ccc(Cl)cc1)C(=O)O` (configuration not stated), the melting point is 184 to 186 °C.
Consider `CC1CCC(NC(=O)C(C)Cl)CC1` (configuration not stated), for which the melting point is 135 to 137 °C.
Then `Cc1nn(-c2ccccc2)c(Cl)c1CO`, with 89 to 91 °C.
Then `NNC(=O)CSc1nnc(-c2ccccc2)n1-c1ccccc1`, with 242 to 244 °C.
In turn, `CC(C)(C)NS(=O)(=O)c1ccc(NN)nc1` gave a melting point of 124 to 126 °C.
For the compound `CCc1ccc(S(C)(=O)=O)cc1C(=O)O`, the melting point was in the range of 151 to 153 °C.
Regarding `O=C(O)c1cccc(S(=O)(=O)N2CCc3ccccc3C2)c1`, the melting point fell in the range of 55 to 58 °C.
As to `NNc1nc(-c2ccccc2)no1`, the melting point lay within 177 to 179 °C.
`CC(=O)Nc1cc2ccccc2cc1C(=O)O`: the melting point is 190 to 192 °C.
In the case of `CNC1CCN(c2cc(OC)cc(OC)c2)C1=O` (configuration not stated) it was 73 to 75 °C.
In the case of `CC(C)CN1CCC(C(=O)O)CC1` it was 75 to 77 °C; in that of `O=S(=O)(Nc1nc2ccccc2nc1Cl)c1cccc(Cl)c1`, 158 to 160 °C.
`Cc1ccc(CNC(=O)CC#N)cc1` came in with a melting point of 127 to 129 °C.
In turn, `O=C(c1ccc(F)cc1)c1ccccc1Cl` registered a melting point of 61 to 63 °C.
On to `Nc1ccc(-c2nc3ccccc3s2)cc1N`, for which the melting point fell in the range of 165 to 169 °C.
In the case of `O=S(=O)(Cl)c1ccc2c(c1)S(=O)(=O)NC=N2` it was 247 to 249 °C; in that of `CC(C)(C)c1ccc(C=CC(=O)O)cc1`, 206 to 208 °C.
In the case of `N#Cc1ccc(S(=O)(=O)N2CCCC2)cc1` it was 103 to 105 °C; in that of `O=C(O)c1ccc2nnc(C3CC3)n2c1`, 290 to 292 °C.
In the case of `NS(=O)(=O)c1ccc(F)cc1[N+](=O)[O-]` it was 153 to 155 °C.
With `Cc1cc(N)nc(N2CCOCC2)n1`, the melting point is 102 to 104 °C.
Then `COC(OC)(OC)c1cc2ccccc2c(=O)[nH]1`, with 131 to 133 °C; and `COc1cc(C2(C(=O)O)CCC2)ccc1C`, with 125 to 127 °C.
In the case of `NC(=O)COc1ccc(C(=O)CCl)cc1` it was 163 to 165 °C; in that of `Cc1cc(OS(C)(=O)=O)nc2c1cnn2C(C)C`, 78 to 80 °C; in that of `NC(=O)c1cc(S(=O)(=O)NCC(=O)O)c[nH]1`, 279 to 281 °C.
In turn, `Cn1cc(C#N)c(=O)[nH]c1=O` returned a melting point of 239 to 241 °C.
Regarding `NC(=O)Nc1ccc(Cl)c(N)c1`, the melting point was in the range of 176 to 178 °C.
Then `NC(=O)C(Cl)c1ccc(Br)cc1` (configuration not stated), with 164 to 166 °C.
`CC(C)(C)c1ccc(S(=O)(=O)Cl)s1` had a melting point of 47 to 49 °C.
`O=C(CCl)Nc1cc(C2CC2)nn1-c1ccccc1`: the melting point fell in the range of 120 to 122 °C.
With `Cc1nn(C(F)F)c(C)c1CC(=O)O`, the melting point was in the range of 173 to 175 °C.
Regarding `O=C(O)c1cn(-c2ccccc2)nc1-c1ccc(Br)cc1`, the melting point was 262 to 264 °C.
`CN(C)C(=O)c1ccc(N)cc1` displayed a melting point of 151 to 153 °C.
The compound `O=C(O)CCS(=O)(=O)C1CCCC1` registered a melting point of 98 to 100 °C.
Turning to `Nc1cccc(OCC(=O)Nc2ccccc2)c1`, the melting point lay in the range of 120 to 122 °C.
In turn, `Nc1ccc(Nc2ccc(F)cc2)c2ccncc12` had a melting point of 153 to 155 °C.
With `Nc1cccc(C(=O)NCc2ccccc2F)c1`, the melting point was in the range of 204 to 206 °C.
In the case of `COc1ccc(Oc2ccc(C=O)cc2)cc1` it was 65 to 67 °C.
Turning to `Nc1ccc(-c2nc3cc(Br)ccc3s2)cc1`, the melting point lay within 189 to 191 °C.
Consider `Cc1ccc(Br)cc1N1CCCS1(=O)=O`, for which the melting point is 144 to 146 °C.

The values are drawn from a melting point compilation (Tetko et al.).
